Converted amounts (≈) assume the structure as drawn.
Legend:
Format in all cases: functional
[1] = system: Staphylococcus aureus; assay: Antimicrobial activity against Staphylococcus aureus ATCC 29213 assessed assessed as reduction in bacterial growth at 1/4 times of drug MIC in the presence of vancomycin by microdilution method
[2] = system: Salmonella typhimurium; assay: Antibacterial activity against Salmonella enterica subsp. enterica serovar Typhimurium ATCC 14028 assessed as inhibition of bacterial growth incubated for 24 hrs by microdilution assay
[3] = system: Staphylococcus aureus; assay: Antimicrobial activity against Staphylococcus aureus MED 55 assessed assessed as reduction in bacterial growth at 1/2 times of drug MIC in the presence of Oxacillin by microdilution method
[4] = system: Streptococcus agalactiae; assay: Antibacterial activity against Streptococcus agalactiae ATCC 13813 assessed as inhibition of bacterial growth incubated for 24 hrs by microdilution assay
[5] = system: Enterococcus faecalis; assay: Antimicrobial activity against Enterococcus faecalis ATCC 51299 assessed assessed as reduction in bacterial growth at 1/4 times of drug MIC in the presence of Teicoplanin by microdilution method
[6] = system: Escherichia coli; assay: Antibacterial activity against Escherichia coli EPEC E234969 assessed as inhibition of bacterial growth incubated for 24 hrs by microdilution assay
[7] = system: Streptococcus agalactiae; assay: Antimicrobial activity against Streptococcus agalactiae ATCC 13813 assessed assessed as reduction in bacterial growth at 1/8 times of drug MIC in the presence of Oxacillin by microdilution method
[8] = system: Escherichia coli; assay: Antibacterial activity against Escherichia coli ATCC 25922 assessed as inhibition of bacterial growth incubated for 24 hrs by microdilution assay
[9] = system: Acinetobacter baumannii; assay: Antibacterial activity against Acinetobacter baumannii ATCC 19606 assessed as inhibition of bacterial growth incubated for 24 hrs by microdilution assay; settings: ATCC 19606 = CIP 70.34 = JCM 6841
[10] = system: Staphylococcus aureus; assay: Antimicrobial activity against Staphylococcus aureus ATCC 29213 assessed assessed as reduction in bacterial growth at 1/8 times of drug MIC in the presence of vancomycin by microdilution method
[11] = system: Enterococcus faecalis; assay: Antibacterial activity against Enterococcus faecalis ATCC 29212 assessed as inhibition of bacterial growth incubated for 24 hrs by microdilution assay
[12] = system: Streptococcus mutans; assay: Antibacterial activity against Streptococcus mutans ATCC 25175 assessed as inhibition of bacterial growth incubated for 24 hrs by microdilution assay
[13] = system: Enterococcus durans; assay: Antibiofilm activity against drug-resistant Enterococcus durans BIO01 assessed as inhibition of biofilm formation incubated for 24 hrs by crystal violet staining based microtiter plate method
[14] = system: Streptococcus mutans; assay: Antimicrobial activity against Streptococcus mutans ATCC 25175 assessed assessed as reduction in bacterial growth at 1/8 times of drug MIC in the presence of Ampicillin by microdilution method
[15] = system: Pseudomonas aeruginosa; assay: Antibacterial activity against Pseudomonas aeruginosa ATCC 27853 assessed as inhibition of bacterial growth incubated for 24 hrs by microdilution assay
[16] = system: Staphylococcus epidermidis; assay: Bactericidal activity against Staphylococcus epidermidis 70 D assessed as bacterial killing incubated for 24 hrs by microdilution assay
[17] = system: Streptococcus pyogenes; assay: Antimicrobial activity against Streptococcus pyogenes ATCC 19615 assessed assessed as reduction in bacterial growth at 1/8 times of drug MIC in the presence of Ampicillin by microdilution method
[18] = system: Escherichia coli; assay: Antibacterial activity against Escherichia coli EOL 931 assessed as inhibition of bacterial growth incubated for 24 hrs by microdilution assay
[19] = system: Enterococcus faecalis; assay: Antimicrobial activity against Enterococcus faecalis ATCC 51299 assessed assessed as reduction in bacterial growth at 1/8 times of drug MIC in the presence of Teicoplanin by microdilution method
[20] = system: Streptococcus agalactiae; assay: Antimicrobial activity against Streptococcus agalactiae ATCC 13813 assessed assessed as reduction in bacterial growth at 1/4 times of drug MIC in the presence of Oxacillin by microdilution method
[21] = system: Streptococcus pyogenes; assay: Ratio of MBC to MIC against Streptococcus pyogenes ATCC 19615
[22] = system: Staphylococcus epidermidis; assay: Antimicrobial activity against Staphylococcus epidermidis ATCC 12228 assessed assessed as reduction in bacterial growth at 1/4 times of drug MIC in the presence of Oxacillin by microdilution method
[23] = system: Enterococcus durans; assay: Antimicrobial activity against Enterococcus durans BIO 0114 assessed assessed as reduction in bacterial growth at 1/4 times of drug MIC in the presence of Teicoplanin by microdilution method
[24] = system: Escherichia coli; assay: Antibacterial activity against Escherichia coli EIEC E20851 assessed as inhibition of bacterial growth incubated for 24 hrs by microdilution assay
[25] = system: Streptococcus sobrinus; assay: Ratio of MBC to MIC against Streptococcus sobrinus ATCC 27351
[26] = system: Shigella flexneri; assay: Antibacterial activity against Shigella flexneri CCCD S006 assessed as inhibition of bacterial growth incubated for 24 hrs by microdilution assay
[27] = system: Streptococcus mutans; assay: Antibiofilm activity against drug-resistant Streptococcus mutans ATCC 25175 assessed as inhibition of biofilm formation incubated for 24 hrs by crystal violet staining based microtiter plate method
[28] = system: Streptococcus pyogenes; assay: Antimicrobial activity against Streptococcus pyogenes ATCC 19615 assessed assessed as reduction in bacterial growth at 1/4 times of drug MIC in the presence of Ampicillin by microdilution method
[29] = system: Streptococcus agalactiae; assay: Ratio of MBC to MIC against Streptococcus agalactiae ATCC 13813
[30] = system: Staphylococcus aureus; assay: Ratio of MBC to MIC against Staphylococcus aureus MED 55
[31] = system: Staphylococcus aureus; assay: Antibiofilm activity against drug-resistant Staphylococcus aureus ATCC 43300 assessed as inhibition of biofilm formation incubated for 24 hrs by crystal violet staining based microtiter plate method
[32] = system: Streptococcus sobrinus; assay: Antimicrobial activity against Streptococcus sobrinus ATCC 27351 assessed assessed as reduction in bacterial growth at 1/4 times of drug MIC in the presence of Ampicillin by microdilution method
[33] = system: Streptococcus pyogenes; assay: Bactericidal activity against Streptococcus pyogenes ATCC 19615 assessed as bacterial killing incubated for 24 hrs by microdilution assay
[34] = system: Enterococcus durans; assay: Antimicrobial activity against Enterococcus durans BIO 0114 assessed assessed as reduction in bacterial growth at 1/8 times of drug MIC in the presence of Teicoplanin by microdilution method
[35] = system: Staphylococcus epidermidis; assay: Antibiofilm activity against drug-resistant Staphylococcus epidermidis 70 D assessed as inhibition of biofilm formation incubated for 24 hrs by crystal violet staining based microtiter plate method
[36] = system: Staphylococcus aureus; assay: Ratio of MBC to MIC against Staphylococcus aureus ATCC 43300
[37] = system: Escherichia coli; assay: Antibacterial activity against Escherichia coli ETEC 2589093 assessed as inhibition of bacterial growth incubated for 24 hrs by microdilution assay
[38] = system: Staphylococcus epidermidis; assay: Ratio of MBC to MIC against Staphylococcus epidermidis 70 D
[39] = system: Enterococcus faecalis; assay: Antibacterial activity against Enterococcus faecalis ATCC 51299 assessed as inhibition of bacterial growth incubated for 24 hrs by microdilution assay
[40] = system: Staphylococcus epidermidis; assay: Antimicrobial activity against Staphylococcus epidermidis 70 D assessed assessed as reduction in bacterial growth at 1/8 times of drug MIC in the presence of vancomycin by microdilution method

In the case of `CC(C)=CCC/C(C)=C/CC/C(C)=C/CO` [FARNESOL], the MIC [1] is reported as 2 µg/mL, the MIC [2] is reported as greater than 1020 µg/mL and the MIC [3] is reported as 128 µg/mL. For the same molecule, the MIC [4] was 16 µg/mL (≈ 72 µM), the MIC [5] was 1 µg/mL and the MIC [6] was greater than 1020 µg/mL. For the same molecule, the MIC [7] was 0.25 µg/mL, the MIC [8] was greater than 1020 µg/mL and the MIC [9] was greater than 1020 µg/mL. The MIC [10] was 2 µg/mL, the MIC [11] was greater than 1020 µg/mL and the MIC [12] was 128 µg/mL (≈ 576 µM). It also gave an MIC [13] of 64 µg/mL (≈ 288 µM), an MIC [14] of 0.5 µg/mL and an MIC [15] greater than 1020 µg/mL. It also gave an MBC [16] of 128 µg/mL (≈ 576 µM), an MIC [17] of 0.063 µg/mL and an MIC [18] greater than 1020 µg/mL. It also gave an MIC [19] of 1 µg/mL, an MIC [20] of 0.25 µg/mL and a Ratio [21] of 4. The MIC [22] was 0.25 µg/mL, the MIC [23] was 1 µg/mL and the MIC [24] was greater than 1020 µg/mL. It also gave a Ratio [25] of 2, an MIC [26] greater than 1020 µg/mL and an MIC [27] of 128 µg/mL (≈ 576 µM). For the same molecule, the MIC [28] was 0.063 µg/mL, the Ratio [29] was 2 and the Ratio [30] was 2. The MIC [31] was 32 µg/mL (≈ 144 µM), the MIC [32] was 0.125 µg/mL and the MBC [33] was 64 µg/mL (≈ 288 µM). For the same molecule, the MIC [34] was 1 µg/mL, the MIC [35] was 64 µg/mL (≈ 288 µM) and the Ratio [36] was greater than 4. For the same molecule, the MIC [37] was greater than 1020 µg/mL, the Ratio [38] was 2 and the MIC [39] was 128 µg/mL (≈ 576 µM). It also gave an MIC [40] of 2 µg/mL.

From ChEMBL document CHEMBL4825691, “Antimicrobial, modulatory, and antibiofilm activity of tt-farnesol on bacterial and fungal strains of importance to human health” (2021)
